PubChem BioAssay (NCI)
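Method: 48-hour compound exposure of cells in 96-well plates, five concentrations, linear interpolation of endpoints. TGI: concentration producing complete growth inhibition.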

Tests used:
Assay in all cases: NCI tumour cell line growth inhibition, 48 h
SNB-75 CNS = test system: SNB-75 CNS
SK-OV-3 ovarian = test system: SK-OV-3 ovarian
NCI-H23 lung = test system: NCI-H23 lung
TK-10 renal = test system: TK-10 renal
SK-MEL-2 melanoma = test system: SK-MEL-2 melanoma
K-562 leukemia = test system: K-562 leukemia
HCT-15 colon = test system: HCT-15 colon
CAKI-1 renal = test system: CAKI-1 renal
LOX IMVI melanoma = test system: LOX IMVI melanoma
RPMI-8226 leukemia = test system: RPMI-8226 leukemia
SK-MEL-5 melanoma = test system: SK-MEL-5 melanoma
HOP-92 NSCLC = test system: HOP-92 NSCLC

SMILES	TGI (SNB-75 CNS) [µM]	TGI (SK-OV-3 ovarian) [µM]	TGI (NCI-H23 lung) [µM]	TGI (TK-10 renal) [µM]	TGI (SK-MEL-2 melanoma) [µM]	TGI (K-562 leukemia) [µM]	TGI (HCT-15 colon) [µM]	TGI (CAKI-1 renal) [µM]	TGI (LOX IMVI melanoma) [µM]	TGI (RPMI-8226 leukemia) [µM]	TGI (SK-MEL-5 melanoma) [µM]	TGI (HOP-92 NSCLC) [µM]
Cc1cc2c(cc1O)CC[C@@H]1[C@@H]2CC[C@]2(C)[C@@H](O)CC[C@@H]12	23.9	34.1	35	91.5	19.8	13.2	16.4	59.6	27	19.2	16.1	30.4
C=C1C(=O)OC2/C=C(\C)C(O)CC(O)C(C)(O)CC(OC(=O)/C(C)=C/C)C12 (stereo not drawn)	> 94.2	> 100	> 100	> 100	> 100	> 100	> 100	> 100	> 100	74.2	> 100	99.8
C[n+]1c2ccccc2c(CNC(CCC(N)=O)C(=O)O)c2ccccc21 (stereo not drawn)	12.5	19.7	13.1	5.68	12	6.51	4.31	7.53	6.64	2.54	10.5	6.96
O=C(O)c1c(-c2c3ccc(=O)cc-3oc3cc(O)ccc23)cc2ccccc2c1-c1ccccc1	> 100	> 100	> 100	> 100	> 100	> 46.4	> 100	> 100	> 100	> 100	> 100	> 100
O=[N+]([O-])c1ccc(Cl)cc1C1ON=C(c2ccccc2)N1C12CC3CC(CC(C3)C1)C2 (stereo not drawn)	> 100	> 100	> 100	> 100	> 100	> 100	> 100	> 100	> 100	> 100	> 100	> 100
O=[N+]([O-])CC(SCc1ccccc1)c1ccc2c(c1)OCO2 (stereo not drawn)	30.6	28.6	17.5	25.2	39.3	4.19	15.9	28.6	3.39	4.03	25	21
O=C1CC(Br)c2c(Cl)sc(Cl)c21 (stereo not drawn)	30.5	30.4	39.1	7.3	32.3	13.7	28.1	9.79	4.4	6.45	41.9	29.6
COC(=O)C1=NN2c3ccccc3C(=O)OCCC2C1 (stereo not drawn)	> 100	> 100	> 100	> 100	> 100	> 100	> 100	> 100	> 100	> 100	> 100	> 100
C=C(C)CCC1CCCCC(CN(C)C)C1=O (stereo not drawn)	> 100	> 100	> 100	> 100	> 100	> 100	> 100	> 100	> 100	> 100	> 100	> 100
c1ccc2nc3[nH]c4ccccc4c3cc2c1	6.44	79.9	1.81	10.7	16	> 100	1.38	3.69	1.16	2.53	2.01	35.5
C=CCN1C(=O)/C(=C/c2ccc(C)cc2)N=C1SC/C=C/C	70.1	> 100	> 100	> 100	57.7	89.4	> 100	> 100	44.5	36.6	44.6	90.9
N#CC1C(=O)Nc2sc(C(=O)c3ccc(Br)cc3)c(N)c2C12CCCCC2 (stereo not drawn)	> 100	> 100	> 100	> 100	37.7	> 100	> 100	> 100	> 100	> 100	32.5	
CCc1cccc(C(C)C)c1NC(=O)C(=O)C(C(=O)C(=O)OC)c1nc2ccccc2[nH]c1=O (stereo not drawn)	> 100	> 100	> 100	> 100	> 100	> 100	> 100	> 100	> 100	> 100	> 100	> 100
N=c1c2c3n(c4c(=O)n(-c5ccccc5)c(=S)n(c(=O)n1-c1ccccc1)c24)CCCCC3	> 100	> 100	> 100	> 100	> 100		> 100	> 100	> 100	> 100	> 100	> 100
Oc1[nH]c2ccccc2c1N=NC1=NCCCCN1	> 100	> 100	> 100	> 100	> 100	> 100	> 100	> 100	> 100	> 100	> 100	> 100
NC(=O)c1n[nH]n(-c2ccccc2)c1=O	> 100	> 100	> 100	> 100	> 100	> 100	> 100	> 100	> 100	> 100	> 100	
CCOC(=O)CCC(C(=O)OCC)n1nc2ccc(Nc3c(C)[n+]([O-])c4cc(Cl)ccc4[n+]3[O-])cc2n1 (stereo not drawn)	> 100	> 100	> 100	> 100	> 100	> 100	> 100	> 100	> 100	> 100	> 100	> 100
O=C(CCCCCCCCC(=O)NN1C(=O)/C(=C\c2ccc(O)c(O)c2)SC1c1c(O)ccc2ccccc12)NN1C(=O)C(=Cc2ccc(O)c(O)c2)SC1c1c(O)ccc2ccccc12 (stereo not drawn)	> 100	> 86.8	95.1	> 100	> 38.6	> 60.8	> 100	> 100	13	21.1	19.4	> 62.7
